This note sets out measurements from article PMC7281150, “Inspired by Sea Urchins: Warburg Effect Mediated Selectivity of Novel Synthetic Non-Glycoside 1,4-Naphthoquinone-6S-Glucose Conjugates in Prostate Cancer” (Marine Drugs, 2020).

Series [1] deals with 22Rv1 cells. Description: Analysis of intracellular ROS level (CM-H2DCFDA, FACS). The class given is cell-based, human. As to conditions: 22Rv1, 200 μM, 2 h. How it is done:
Intracellular ROS levels were accessed using the ROS-sensitive CM-H2DCFDA reagent (Cat. No. C6827, Molecular probes, Invitrogen, Eugene, OR, USA). The experiment was performed as previously described with slight modifications. In brief, 22Rv1 cells (10^5 cells/well) were seeded in 12-well plates and incubated overnight. The media was changed with freshly made pre-warmed staining solution (4 µM CM-H2DCFDA/PBS, 0.5 mL/well) and incubated in the dark (37 °C, 5% CO2) for 30 min. Then, the staining solution was exchanged with 1 mL/well of pre-warmed PBS containing the investigated compounds or H2O2 (positive control) at the indicated concentrations and the cells were incubated for 2 h. Next, the cells were trypsinized, resuspended in pre-warmed PBS (200 µL/sample) and immediately analyzed by FACS according to the manufacture′s protocol.

Series [2] relates to 22Rv1 cells. In words: Analysis of mitochondrial membrane potential (JC-1, FACS). The class given is cell-based, human. To be noted: 22Rv1, 50 µM. Here is the method: The drop down of mitochondrial membrane potential (ΔΨm) was measured using staining with ΔΨm-sensitive JC-1 dye (5,5′,6,6′-Tetrachloro-1,1′,3,3′-tetraethyl-imidacarbocyanine iodide) and flow cytometry technique. Cells (10^5 cells/well) were seeded in 12-well plates and incubated overnight. […] The cells were trypsinized, pelleted, resuspended in 100 µL of 2 µM JC-1/PBS, incubated for 1 h (37 °C, 5% CO2, in the dark), and analyzed by flow cytometry technique.

With `COc1c(O)c2c(c(O)c1SC[C@H]1O[C@@H](OC(C)=O)[C@H](OC(C)=O)[C@@H](OC(C)=O)[C@@H]1OC(C)=O)C(=O)C(O)=CC2=O` [SAB-5, 7-(1,2,3,4-Tetra-O-acetyl-6-deoxy-β-D-glucopyranos-6-ylthio)-2,5,8-trihydroxy-6-methoxy-1,4-naphthoquinone], the melting point (commonly the temperature, or range, at which the solid turns liquid) lay in the range of 109 to 112 °C.

On to `CC(=O)O[C@@H]1O[C@H](CSC2=C(C)C(=O)c3c(O)cccc3C2=O)[C@@H](OC(C)=O)[C@H](OC(C)=O)[C@H]1OC(C)=O` [SAB-7, 2-(1,2,3,4-Tetra-O-acetyl-6-deoxy-β-D-glucopyranos-6-ylthio)-5-hydroxy-3-methyl-1,4-naphthoquinone], for which the melting point is 160 to 161 °C.

On to `OO` [H2O2, reference compound], for which, in the series on 22Rv1 cells [1], the “ROS level (CM-H2DCFDA, FACS)” value was found to be 68.4±1.5%.

`CC(=O)O[C@@H]1O[C@H](CSc2c(C)c(O)c3c(c2O)C(=O)C(O)=C(O)C3=O)[C@@H](OC(C)=O)[C@H](OC(C)=O)[C@H]1OC(C)=O` [SAB-3, 6-(1,2,3,4-Tetra-O-acetyl-6-deoxy-β-D-glucopyranos-6-ylthio)-2,3,5,8-tetrahydroxy-7-methyl-1,4-naphthoquinone] had a melting point of 207 to 211 °C.

Molecule `CCc1c(O)c2c(c(O)c1SC[C@H]1O[C@@H](OC(C)=O)[C@H](OC(C)=O)[C@@H](OC(C)=O)[C@@H]1OC(C)=O)C(=O)C(C)=C(C)C2=O` [SAB-17, 6-(1,2,3,4-Tetra-O-acetyl-6-deoxy-β-D-glucopyranos-6-ylthio)-7-ethyl-5,8-dihydroxy-2,3-dimethyl-1,4-naphthoquinone] came in with a melting point of 179 to 182 °C.

For `CC(=O)O[C@@H]1O[C@H](CSC2=C(Cl)C(=O)c3c(O)c(Cl)c(Cl)c(O)c3C2=O)[C@@H](OC(C)=O)[C@H](OC(C)=O)[C@H]1OC(C)=O` [SAB-19, 2-(1,2,3,4-Tetra-O-acetyl-6-deoxy-β-D-glucopyranos-6-ylthio)-3,6,7-trichloro-5,8-dihydroxy-1,4-naphthoquinone], the melting point was 156 to 159 °C.

As to `CC(=O)O[C@@H]1O[C@H](CSC2=C(SC[C@H]3O[C@@H](OC(C)=O)[C@H](OC(C)=O)[C@@H](OC(C)=O)[C@@H]3OC(C)=O)C(=O)c3c(O)c(C)c(C)c(O)c3C2=O)[C@@H](OC(C)=O)[C@H](OC(C)=O)[C@H]1OC(C)=O` [SAB-9, 2,3-Di(1,2,3,4-tetra-O-acetyl-6-deoxy-β-D-glucopyranos-6-ylthio)-5,8-dihydroxy-6,7-dimethyl-1,4-naphthoquinone], the melting point lay in the range of 202 to 205 °C.

In turn, `CC(=O)Oc1cccc2c1C(=O)C=C(SC[C@H]1O[C@@H](OC(C)=O)[C@H](OC(C)=O)[C@@H](OC(C)=O)[C@@H]1OC(C)=O)C2=O` [SAB-25, 2-(1,2,3,4-Tetra-O-acetyl-6-deoxy-β-D-glucopyranos-6-ylthio)-5-acetoxy-1,4-naphthoquinone] had a melting point of 172 to 175 °C.

For the molecule `CC(=O)O[C@@H]1O[C@H](CSC2=CC(=O)c3c(O)c(C)c(C)c(O)c3C2=O)[C@@H](OC(C)=O)[C@H](OC(C)=O)[C@H]1OC(C)=O` [SAB-1, 2-(1,2,3,4-Tetra-O-acetyl-6-deoxy-β-D-glucopyranos-6-ylthio)-5,8-dihydroxy-6,7-dimethyl-1,4-naphthoquinone], the melting point is 203 to 205 °C.

Consider `N#CC(C#N)=NNc1cccc(Cl)c1` [CCCP, 2-[2-(3-chlorophenyl)hydrazinylyidene]propanedinitrile, reference compound], for which the “cells containing depolarized mitochondria (JC-1)” value with 22Rv1 cells [2] (2 h) was found to be 94±0.3%; in the series on 22Rv1 cells [2] (48 h), 92.1±1.8%.

`CC(=O)O[C@@H]1O[C@H](CSc2c(C)c(O)c3c(c2O)C(=O)C(C)=C(C)C3=O)[C@@H](OC(C)=O)[C@H](OC(C)=O)[C@H]1OC(C)=O` [SAB-15, 6-(1,2,3,4-Tetra-O-acetyl-6-deoxy-β-D-glucopyranos-6-ylthio)-5,8-dihydroxy-2,3,7-trimethyl-1,4-naphthoquinone]: the melting point lay within 148 to 151 °C.

As to `CCC1=C(O)C(=O)c2c(O)c(SC[C@H]3O[C@@H](OC(C)=O)[C@H](OC(C)=O)[C@@H](OC(C)=O)[C@@H]3OC(C)=O)c(OC)c(O)c2C1=O` [SAB-11, 7-(1,2,3,4-Tetra-O-acetyl-6-deoxy-β-D-glucopyranos-6-ylthio)-3-ethyl-2,5,8-trihydroxy-6-methoxy-1,4-naphthoquinone], the melting point lay within 167 to 171 °C.

In turn, `CC(=O)O[C@@H]1O[C@H](CSC2=CC(=O)c3c(O)ccc(O)c3C2=O)[C@@H](OC(C)=O)[C@H](OC(C)=O)[C@H]1OC(C)=O` [SAB-21, 2-(1,2,3,4-Tetra-O-acetyl-6-deoxy-β-D-glucopyranos-6-ylthio)-5,8-dihydroxy-1,4-naphthoquinone] gave a melting point of 207 to 210 °C.
